The text below walks through data of patent US6552087B1 (Abbott GmbH & Co. KG, priority 1999, dated 2003).

The subject of assay [1] is mice. Nature of the assay: Porsolt test in mice. The assay is classed as in vivo. Particulars: Mus musculus, dose required to increase mobility by 50%. The procedure: This test was carried out according to the procedure described in Porsolt, R. D. (1981). Behavioural despair. In: Antidepressants: Neurochemical, Behavioural and Clinical Perspectives, ed. […] New York: Raven Press.
(§1) The test compounds were dissolved in deionised water. Control groups of mice were treated with either deionised water or the standard antidepressant, amitriptyline (30 mg/kg p.o.).
Data from the Porsolt test were analysed in two ways.

A further assay concerns rats. Kind of assay: Prevention of reserpine-induced ptosis in rats. The assay is classed as in vivo. Particulars: Rattus norvegicus, read-out: ED50, Reserpine test in rats. Here is the method: A further standard test for antidepressants but relying on the ability of compounds to prevent rather than reverse reserpine-induced effects in rodents.
The compounds were tested as described in Prog. Neuro-Psychopharmacol. & Biol. Psychiat., 12, 575-584, Buckett et al. Rats were housed five per cage rather than six per cage and ptosis was assessed twice during 60 sec rather than during 30 sec.
(§2) Data from the reserpine reversal screen in mice and the reserpine prevention test in rats were used to calculate ED50 values for the reversal and prevention of reserpine-induced effects respectively.

Assay [2] concerns the target T1, noradrenaline reuptake site (Rattus norvegicus, UniProt Q63380).
T1 construct: Adult male CD rats were killed by cervical dislocation, brains removed and frontal cortices (120-150 mg) immediately dissected; from tissue; host or cells: rat frontal cortex membranes (Sprague-Dawley derived CD rats)
Nature of the assay: Noradrenaline reuptake site binding assay in rat brain ([3H]nisoxetine). Conditions: for Hill slope, NA reuptake site: rat frontal cortex, [3H]nisoxetine, mean ± SEM. The procedure: (§3) The IC50 was calculated using the following formula: [formula]
The supernatant was discarded and the pellet rehomogenised in Tris buffer, 1:60 w/v, and centrifuged at 40,000 g for 10 minutes. This step was repeated a further twice so that, in total, the brain tissue was homogenised and centrifuged four times. […] All centrifugations were carried out at 4° C.

The target of assay [3] is T2, dopamine reuptake site (Homo sapiens, UniProt Q01959).
T2 construct: Frozen putamen was homogenised in ice-cold 0.25 M sucrose (1:40 w/v); from tissue; host or cells: human post-mortem putamen membranes
T2 sequence (Q01959 whole entry): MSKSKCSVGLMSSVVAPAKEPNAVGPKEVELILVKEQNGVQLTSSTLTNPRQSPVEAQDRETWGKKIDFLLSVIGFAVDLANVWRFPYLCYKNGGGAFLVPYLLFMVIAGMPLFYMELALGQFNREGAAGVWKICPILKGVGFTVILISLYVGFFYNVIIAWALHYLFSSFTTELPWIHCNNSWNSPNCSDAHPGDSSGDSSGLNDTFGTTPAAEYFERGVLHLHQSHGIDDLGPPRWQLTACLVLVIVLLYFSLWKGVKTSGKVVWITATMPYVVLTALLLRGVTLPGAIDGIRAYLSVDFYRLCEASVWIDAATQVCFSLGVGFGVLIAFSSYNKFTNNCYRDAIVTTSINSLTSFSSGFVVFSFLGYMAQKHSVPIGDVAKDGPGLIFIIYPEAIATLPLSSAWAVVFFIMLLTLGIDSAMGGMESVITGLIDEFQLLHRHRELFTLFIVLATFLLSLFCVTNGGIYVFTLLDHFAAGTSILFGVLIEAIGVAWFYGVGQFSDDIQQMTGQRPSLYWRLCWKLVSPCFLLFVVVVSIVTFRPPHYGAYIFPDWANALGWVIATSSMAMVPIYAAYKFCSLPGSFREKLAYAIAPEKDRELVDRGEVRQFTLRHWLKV
Nature of the assay: Dopamine reuptake site binding assay in human brain ([3H]GBR 12935). Particulars: for Hill slope, DA reuptake site: human putamen, [3H]GBR 12935, mean ± SEM. Here is the method:
as §3
The membrane pellet was resuspended in Tris buffer (1:40 w/v) and incubated at 37° C. for 10 min (to remove endogenous neurotransmitters) and recentrifuged at 35,000 g for 10 minutes. […] All centrifugations were carried out at 4° C.

Assay [4] concerns mice. Kind of assay: Reserpine reversal screen in mice. The assay is classed as in vivo. Conditions: Mus musculus, ip, reversal of reserpine-induced effects, reserpine 10 mg/kg i.p., read-out: ED50, Reserpine test in mice. The procedure:
This was carried as described in U.S. Pat. No. 4,746,680 except that the dose of reserpine was 10 mg/kg (i.p.).
as §1, §2

For assay [5], the target named is T3, noradrenaline reuptake site (Homo sapiens, UniProt P23975).
T3 construct: Frozen thalamus was homogenised in ice-cold 0.25 M sucrose (1:40 w/v); from tissue; host or cells: human post-mortem thalamus membranes
T3 sequence (P23975 whole entry): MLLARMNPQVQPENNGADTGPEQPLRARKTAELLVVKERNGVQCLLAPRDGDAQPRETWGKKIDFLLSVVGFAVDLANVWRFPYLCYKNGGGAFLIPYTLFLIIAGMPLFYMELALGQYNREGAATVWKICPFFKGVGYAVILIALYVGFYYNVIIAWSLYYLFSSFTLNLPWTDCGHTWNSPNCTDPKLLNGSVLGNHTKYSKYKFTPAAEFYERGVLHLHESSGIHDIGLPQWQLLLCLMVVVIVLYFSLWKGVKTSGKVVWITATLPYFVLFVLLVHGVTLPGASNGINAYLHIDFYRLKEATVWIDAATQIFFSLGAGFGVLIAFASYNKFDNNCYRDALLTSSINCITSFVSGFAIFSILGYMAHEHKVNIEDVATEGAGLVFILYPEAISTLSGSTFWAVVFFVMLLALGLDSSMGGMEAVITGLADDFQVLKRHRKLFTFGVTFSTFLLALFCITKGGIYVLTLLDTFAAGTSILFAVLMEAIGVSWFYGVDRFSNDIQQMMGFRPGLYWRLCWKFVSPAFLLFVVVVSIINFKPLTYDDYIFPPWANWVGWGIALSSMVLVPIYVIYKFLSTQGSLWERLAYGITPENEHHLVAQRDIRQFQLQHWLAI
Kind of assay: Noradrenaline reuptake site binding assay in human brain ([3H]nisoxetine). Particulars: human thalamus, mean ± SEM. The procedure: as §3
The pellet was resuspended in Tris buffer (1:40 w/v) and incubated at 37° C. for 10 min (to remove endogenous neurotransmitters) and recentrifuged at 35,000 g for 10 minutes. […] All centrifugations were carried out at 4° C.

Assay [6] deals with T4, dopamine reuptake site (Rattus norvegicus, UniProt P23977).
T4 construct: from tissue; host or cells: rat striatal membranes (Sprague-Dawley derived CD rats)
T4 sequence (P23977 whole entry): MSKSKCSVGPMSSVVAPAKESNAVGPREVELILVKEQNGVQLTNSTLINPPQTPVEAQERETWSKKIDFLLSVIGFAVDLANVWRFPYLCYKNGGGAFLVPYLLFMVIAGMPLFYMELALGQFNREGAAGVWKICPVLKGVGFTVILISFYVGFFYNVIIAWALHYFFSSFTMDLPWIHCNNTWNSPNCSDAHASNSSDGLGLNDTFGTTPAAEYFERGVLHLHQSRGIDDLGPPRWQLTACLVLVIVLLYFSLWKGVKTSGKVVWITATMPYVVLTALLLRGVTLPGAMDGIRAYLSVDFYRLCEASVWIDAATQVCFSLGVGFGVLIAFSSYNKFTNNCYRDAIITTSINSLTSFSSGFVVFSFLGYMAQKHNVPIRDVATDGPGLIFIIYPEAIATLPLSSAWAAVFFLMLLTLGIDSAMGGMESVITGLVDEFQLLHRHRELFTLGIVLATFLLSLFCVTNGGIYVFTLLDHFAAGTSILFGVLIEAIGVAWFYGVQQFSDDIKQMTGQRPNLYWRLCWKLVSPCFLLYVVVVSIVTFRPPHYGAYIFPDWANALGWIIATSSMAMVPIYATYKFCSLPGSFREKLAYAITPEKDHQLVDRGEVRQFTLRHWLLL
Nature of the assay: Dopamine reuptake site binding assay in rat brain ([3H]GBR 12935). Conditions: for Hill slope, DA reuptake site: rat striatum, [3H]GBR 12935, mean ± SEM. The procedure:
as §3
Tissue was homogenised in ice-cold 0.32 M sucrose (1:80 w/v) using a motor driven teflon pestle (12 strokes, 800 rpm) and centrifuged at 1000 g for 12 minutes. […] All centrifugations were carried out at 4° C.

Structures can show the parent of a compound that is named as a salt.

T1 sequence (Q63380 1-617): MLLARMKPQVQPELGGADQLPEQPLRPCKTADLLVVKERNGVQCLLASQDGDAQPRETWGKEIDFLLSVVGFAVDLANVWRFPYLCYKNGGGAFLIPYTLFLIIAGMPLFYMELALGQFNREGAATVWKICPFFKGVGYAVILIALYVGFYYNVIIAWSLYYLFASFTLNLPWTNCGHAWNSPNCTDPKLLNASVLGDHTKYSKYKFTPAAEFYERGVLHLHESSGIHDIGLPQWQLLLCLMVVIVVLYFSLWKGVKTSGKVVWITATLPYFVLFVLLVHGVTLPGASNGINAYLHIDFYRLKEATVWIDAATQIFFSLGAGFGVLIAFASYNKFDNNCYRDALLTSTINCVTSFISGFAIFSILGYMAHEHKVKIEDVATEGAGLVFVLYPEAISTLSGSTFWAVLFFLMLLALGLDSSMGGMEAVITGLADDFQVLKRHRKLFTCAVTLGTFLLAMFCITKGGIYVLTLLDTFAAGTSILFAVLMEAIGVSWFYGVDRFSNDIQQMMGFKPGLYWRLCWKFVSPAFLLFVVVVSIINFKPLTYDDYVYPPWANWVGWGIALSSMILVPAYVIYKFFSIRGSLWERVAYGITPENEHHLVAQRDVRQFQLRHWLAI

As to `CC(C)C[C@@H](N(C)C)C1(c2ccc(Cl)cc2)CCC1` [(+)-Sibutramine, hydrochloride], the ED50 in the assay with mice [1] was 2.4 mg/kg; with rats, 0.7 mg/kg; with mice [4] it was approximately 1 mg/kg. For the same molecule, the Ki in assay [2] was 3040 ± 233 nM; at dopamine reuptake site [3], 897 ± 125 nM; at dopamine reuptake site [6], 1650 ± 175 nM. Moreover, the results for the “Hill slope, NA reuptake site” value in assay [2] and in assay [5] were “[1.02 ± 0.06]” and “[0.97 ± 0.13]”, respectively. The “Hill slope, DA reuptake site” value on dopamine reuptake site [3] is “[1.29 ± 0.04]”; on dopamine reuptake site [6] it was “[1.74 ± 0.20]”.
As for `CC(C)C[C@H](N(C)C)C1(c2ccc(Cl)cc2)CCC1.Cl` [(−)-Sibutramine, (−)-N-{1-[1-(4-chlorophenyl)cyclobutyl]-3-methylbutyl}-N,N-dimethylamine hydrochloride], the ED50 is 9.8 mg/kg with mice [1], 59 mg/kg in the assay with rats and approximately 30 mg/kg in the assay with mice [4]. For the same molecule, the Ki in assay [2] is 23800 ± 615 nM; on dopamine reuptake site [3], 2890 ± 363 nM; at dopamine reuptake site [6], 4480 ± 65 nM. Besides, the “Hill slope, NA reuptake site” value in assay [2] was “[1.02 ± 0.08]”; in assay [5], “[1.30 ± 0.04]”. For the same molecule, the “Hill slope, DA reuptake site” value was “[1.25 ± 0.05]” at dopamine reuptake site [3] and “[2.07 ± 0.16]” at dopamine reuptake site [6].
Take `CC(C)CC(N(C)C)C1(c2ccc(Cl)cc2)CCC1` (racemic) [Sibutramine, N,N-dimethyl-1-[1-(4-chlorophenyl)cyclobutyl]-3-methylbutylamine]: the ED50 in the assay on mice [1] is 1.8 mg/kg; in the assay on rats, approximately 1.5 mg/kg; with mice [4], 1.8 mg/kg. Further, the Ki came out at 86 ± 10 nM in assay [2], 943 ± 64 nM at dopamine reuptake site [3] and 3070 ± 50 nM at dopamine reuptake site [6]. The “Hill slope, NA reuptake site” value was “[1.02 ± 0.02]” in assay [2] and “[1.34 ± 0.01]” in assay [5]. For the same molecule, the “Hill slope, DA reuptake site” value at dopamine reuptake site [3] was “[1.15 ± 0.04]”; at dopamine reuptake site [6], “[1.14 ± 0.04]”.

As a reminder, the ED50 is the dose that gives a 50% effect, or the effect in half of the subjects. A word on the Ki: it is the equilibrium dissociation constant of an inhibitor or competing ligand from its target.
